No end group written: not given here. A value given as a limit tells only on which side of the number the result lay.

One may read the MIC as the smallest concentration in the dilution series that meets the test's criterion for growth inhibition. High values mean weaker potency, low ones greater potency.

The subject of one data set is S. aureus (NCTC 6538). Briefly: MIC/MBC broth dilution assay. The conditions noted are these: 37 °C overnight, nine replicates from three independent experiments. Type of data set: cell-based, Staphylococcus aureus. How it is done:
(§1) The minimal inhibitory concentration assay (MIC) and minimum bactericidal concentration assay (MBC) of the peptide were carried out using the broth dilution method. Seven microbes, including the Gram-positive bacteria, S. aureus (NCTC 6538), MRSA, (ATCC 12493) and Enterococcus faecalis (E. faecalis) (NCTC 12697); Gram-negative bacteria, E. coli (ATCC 8739), Klebsiella pneumoniae (K. pneumoniae) (ATCC 43816) and Pseudomonas aeruginosa (P. aeruginosa) (ATCC 9027); and a yeast, C. albicans (ATCC 10231), were used in these assays and incubated with peptide at 37 °C overnight. The growth culture media were Yeast Extract Peptone Dextrose for C. albicans and Mueller–Hinton broth for others. The concentration of microbes was detected by measuring OD values through the use of a UV spectrophotometer set to 550 nm. C. albicans assays required 10^6 colony forming units (CFU)/mL, while others were incubated with 10^8 CFU/mL and verified by viable cell counts. All of the inocula were diluted to final concentrations of 5 × 10^5 CFU/mL. The concentration of peptides ranged from 1 µM to 512 µM (C = 1, 2, 4, 8, 16, 32, 64, 128, 256, 512 µM). Two mg/mL of amphotericin B for C. albicans and 2 mg/mL norfloxacin for others were applied as positive controls, and 1% of dimethyl sulphoxide (DMSO) was applied as a vehicle control. The 96-well plates were analysed at 550 nm using an ELISA plate reader (Biolise BioTek EL808, Winooski, VT, USA).
(§2) After analysing the growth situation of microbial cultures from each concentration, 10 µL of the inhibited cultures (the peptide concentration ranges from MIC to maximum concentration) were selected to sub-culture onto the Mueller–Hinton agar (MHA) plates. The plates were incubated overnight at 37 °C. After incubation, the lowest concentration on the MHA plates with no bacterial growth was regarded as the MBC value.
(In general: Broth dilution looks for growth in wells or tubes with falling amounts of substance.)

In a further data set the test system is MRSA (ATCC 12493). In words: MIC/MBC broth dilution assay. In kind it is cell-based, methicillin-resistant Staphylococcus aureus. The settings on record: 37 °C overnight, nine replicates from three independent experiments. How it is done:
as §1, §2

Another data set has as its system E. faecalis (NCTC 12697). In words: MIC/MBC broth dilution assay. Type of data set: cell-based, Enterococcus faecalis. The settings on record: 37 °C overnight, nine replicates from three independent experiments. The method, then:
as §1, §2

For another data set, the system named is E. coli (ATCC 8739). In words: MIC/MBC broth dilution assay. The settings on record: 37 °C overnight, nine replicates from three independent experiments. Type of data set: cell-based, Escherichia coli. How it is done:
as §1, §2

For data set [1], the system named is K. pneumoniae (ATCC 43816). In words: MIC/MBC broth dilution assay. Type of data set: cell-based, Klebsiella pneumoniae. The settings on record: broth dilution, Mueller–Hinton broth, 5 × 10^5 CFU/mL, 37 °C overnight, OD 550 nm, nine replicates from three independent experiments. How it is done: as §1, §2
Data set [2] has as its system P. aeruginosa (ATCC 9027). In words: MIC/MBC broth dilution assay. In kind it is cell-based, Pseudomonas aeruginosa. The conditions noted are these: broth dilution, Mueller–Hinton broth, 5 × 10^5 CFU/mL, 37 °C overnight, OD 550 nm, nine replicates from three independent experiments. How it is done: as §1, §2
The subject of a further data set is C. albicans (ATCC 10231). In words: MIC/MBC broth dilution assay. In kind it is cell-based, Candida albicans. The conditions noted are these: sub-culture on agar plates, 37 °C overnight, nine replicates from three independent experiments. The method, then: as §1, §2
The next data set deals with S. aureus biofilm. Briefly: Antibiofilm assay (MBIC/MBEC), crystal violet. Type of data set: cell-based, Staphylococcus aureus. The conditions noted are these: TSB, 595 nm, nine replicates from three independent experiments. The method, then:
(§3) The minimal biofilm inhibitory concentration assay (MBIC) and minimal biofilm eradication concentration assay (MBEC) were performed on each of the peptides using Gram-positive bacteria cultured in Tryptic Soy Broth (TSB, Sigma-Aldrich, St. Louis, MO, USA) and Gram-negative bacteria cultured in Luria-Bertani broth (LB, Thermo Fisher Scientific, Carlsbad, CA, USA). The seeding concentration in 96-well plates of bacterial suspension was the same as for the anti-bacterial assay, and a UV spectrophotometer set to 550 nm was used to detect OD values. Melittin was used as a positive control. For MBIC, peptide solution was mixed with bacterial suspension at first to test if it could inhibit the growth of biofilm. However, for minimal biofilm eradication (MBEC) assays, biofilm was formed in 96-well plates at 37 °C for 24 h after seeding bacteria; afterwards, it was washed by sterile PBS twice. Peptide solutions, prepared with culture broth, were added to […] the biofilms by incubating at 37 °C for 24 h. Both plates were washed by PBS twice and stained by 125 µL 0.1% crystal violet solution (Sigma-Aldrich, Gillingham, UK). The stain was dissolved in 150 µL 30% acetic acid (Sigma-Aldrich, Gillingham, UK). The absorbance values of 100 µL solution from each well, were analysed by using a Synergy HT plate reader (Biotech, Minneapolis, MN, USA) set at 595 nm.

Another data set has as its system MRSA biofilm. Briefly: Antibiofilm assay (MBIC/MBEC), crystal violet. In kind it is cell-based, methicillin-resistant Staphylococcus aureus. The settings on record: TSB, 595 nm, nine replicates from three independent experiments. How it is done: as §3
The test system of the next data set is E. coli biofilm. Briefly: Antibiofilm assay (MBIC/MBEC), crystal violet. The settings on record: LB, 595 nm, nine replicates from three independent experiments. Type of data set: cell-based, Escherichia coli. The method, then: as §3
The subject of the next data set is K. pneumoniae biofilm. In words: Antibiofilm assay (MBIC/MBEC), crystal violet. In kind it is cell-based, Klebsiella pneumoniae. The conditions noted are these: LB, 595 nm, nine replicates from three independent experiments. How it is done:
as §3

A further data set deals with P. aeruginosa biofilm. In words: Antibiofilm assay (MBIC/MBEC), crystal violet. The settings on record: LB, 595 nm, nine replicates from three independent experiments. In kind it is cell-based, Pseudomonas aeruginosa. How it is done:
as §3

In another data set the test system is horse erythrocytes. In words: Haemolysis assay. In kind it is cell-based. The conditions noted are these: 37 °C, 2 h. The method, then:
Defibrinated horse erythrocytes (TCS Biosciences Ltd., Buckingham, UK) were used in the haemolysis assay. Peptides, from 1 μM to 512 μM, were tested with a 4% (v/v) erythrocyte suspension and were incubated at 37 °C for 2 h, while 1% Triton X-100 (Sigma-Aldrich, St. Louis, MO, USA) was acted as a positive control and phosphate-buffered saline (PBS) was used as a negative control. The sample supernatants were analysed at 550 nm on an ELISA plate reader (Biolise BioTek EL808, Winooski, VT, USA).

In another data set the test system is Gram-positive bacteria. In words: MIC broth dilution assay, summary over Gram-positive bacteria. In kind it is cell-based. The conditions noted are these: range over S. aureus, MRSA, E. faecalis. The method, then:
as §1, with “Two mg/mL of amphotericin B for C. albicans and 2 mg/mL norfloxacin for others were applied as positive controls, and 1% of dimethyl sulphoxide (DMSO) was applied as a vehicle control.” left out, “USA). […]” for “USA).”

The mark [3] stands for this setting: broth dilution, Mueller–Hinton broth, 5 × 10^5 CFU/mL, OD 550 nm.

As to FLPIIGKLLSGLL-NH2 [VM], the MIC against S. aureus (NCTC 6538) (setting [3]) is 4 µM; in the data set with MRSA (ATCC 12493) (setting [3]), 4 µM; against E. faecalis (NCTC 12697) (setting [3]), 16 µM; in the data set with E. coli (ATCC 8739) (setting [3]), 256 µM; in data set [1], more than 512 µM; in data set [2], more than 512 µM. In addition, the MBC is 4 µM against S. aureus (NCTC 6538) (sub-culture of inhibited cultures on MHA); 4 µM in the data set on MRSA (ATCC 12493) (sub-culture on MHA); 16 µM against E. faecalis (NCTC 12697) (sub-culture on MHA); 256 µM against E. coli (ATCC 8739) (sub-culture on MHA); 32/32 µM in the data set with C. albicans (ATCC 10231). The MBIC was 8 µM in the data set on S. aureus biofilm (S. aureus biofilm inhibition); 8 µM with MRSA biofilm (MRSA biofilm inhibition); >512/>512 µM with E. coli biofilm (E. coli biofilm inhibition); >512/>512 µM in the data set with K. pneumoniae biofilm (K. pneumoniae biofilm inhibition); >512/>512 µM in the data set with P. aeruginosa biofilm (P. aeruginosa biofilm inhibition). Further, the MBEC was 64 µM with S. aureus biofilm (S. aureus preformed 24 h biofilm, peptide 24 h at 37 °C); 64 µM with MRSA biofilm (MRSA preformed 24 h biofilm, peptide 24 h at 37 °C); >512/>512 µM in the data set with E. coli biofilm (E. coli preformed 24 h biofilm, peptide 24 h at 37 °C); >512/>512 µM in the data set on K. pneumoniae biofilm (K. pneumoniae preformed 24 h biofilm, peptide 24 h at 37 °C); >512/>512 µM in the data set on P. aeruginosa biofilm (P. aeruginosa preformed 24 h biofilm, peptide 24 h at 37 °C). Further, the “HC50 (peptide concentration that caused 50% lysis of horse red blood cells)” value in the data set with horse erythrocytes (4% (v/v) defibrinated horse erythrocytes, 550 nm, normalised to 1% Triton X-100, calculated from the haemolysis curve) is given as 44.43 µM. The “maximum concentration that caused less than 10% haemolysis” value in the data set on horse erythrocytes (4% horse erythrocytes) was found to be 16 µM. For the same substance, in the data set with Gram-positive bacteria, the “MICs against Gram-positive bacteria” value lay within 4 to 16 µM.

Values taken from paper PMC9495676, “Evaluation of the Antimicrobial Properties of a Natural Peptide from Vespa mandarinia Venom and Its Synthetic Analogues as a Possible Route to Defeat Drug-Resistant Microbes” (Biology, 2022).
